According to patent US7795306B2, “Triterpene derivatives for the treatment of cancer and inflammatory disease by inhibition of NF-κB” (priority 2006, dated 2010):
“Also recorded” adds a separate entry of the source. Square brackets hold non-standard residues; d marks the D form. Peptide text beside a SMILES is read from it.

What was measured:
[1] = system: NF-κB; test: TNF-α-dependent activation of NF-κB binding to κB site in nuclear extracts of HeLa cells, ELISA (Panomics); format: cell-based; details: HeLa cell nuclear extracts, FIG. 1
Description: To further explore the additional molecular target(s) for PM2011, we postulated that these compounds could antagonize the activation of NF-κB. To test this hypothesis, we evaluated the effects of PM2010, PM2011 and PM2012 on TNF-α-dependent activation of NF-κB binding to κB site in nuclear extracts of HeLa cells by an ELISA (Panomics) as recommended.

[2] = system: SiHa; test: cell proliferation by MTS assay for 72 h, SiHa; format: cell-based, human; details: SiHa tumor cell line
Description: (§1) PM 2011 (1) inhibits tumor cell lines independent of endothelin receptor A (ETA) inhibition: Others have disclosed PM 2011 (1) and its derivatives as potent endothelin receptor antagonists (WO 92/12991, EP 526,642, U.S. Pat. No. 5,248,807, U.S. Pat. No. 5,463,107 and U.S. Pat. No. 5,587,505). We have used human tumor cell lines to evaluate the effects of PM 2011 (1) on endothelin-1 (ET-1) dependent biologic functions. Some of these cell lines are well characterized for the expression and role of ET-1, ETA and ETB (16, 41). […] To validate three cell lines, we studied the effects of BQ123, BQ788, PM2010, PM2011 and PM2012 on cell proliferation by MTS assay for 72 h (16).

[3] = system: K562; test: cell proliferation by MTS assay for 72 h, K562; format: cell-based, human; details: K562 tumor cell line
Description: as §1

[4] = system: C33A; test: cell proliferation by MTS assay for 72 h, C33A; format: cell-based, human
Description: as §1

[5] = system: SK-Mel-28; test: cell proliferation by MTS assay for 72 h, SK-Mel-28; format: cell-based, human; details: for growth inhibition of SK-Mel 28 cell line (in words): SK-Mel 28, MTS assay
Description: as §1

[6] = system: HL60; test: cell proliferation by MTS assay for 72 h, HL60; format: cell-based, human
Description: as §1

[7] = Homo sapiens, 100 μM, read-out: % Inhibition at 100 μM (i)

IC50 [3] [nM]	IC50 ([5]; SK-Mel-28 tumor cell line, MTS assay) [nM]	IC50 ([5]; Homo sapiens, SK-Mel-28 tumor cell line, MTS assay) [nM]	IC50 ([6]; Homo sapiens, HL-60, HL60 tumor cell line) [nM]	Compound	NF-κB binding to κB site / inhibition of NF-κB activation (in words) [1]	IC50 [2] [nM]	IC50 ([4]; C33A tumor cell line, MTS assay, 72 h) [nM]	inhibition of C33A (in words) ([4]; HPV-negative cell line C33A, neither secretes ET-1 nor expresses ETA)	IC50 ([6]; HL60 tumor cell line) [nM]	inhibition at 100 µM [2, 7] [%]	inhibition at 100 µM [3, 7] [%]	IC50 ([4]; Homo sapiens, C-33-A, C33A tumor cell line, MTS assay, 72 h) [nM]	growth inhibition of SK-Mel 28 cell line (in words) [5]	% Inhibition at 100 μM (i) ([2]; 100 μM) [% i]	% Inhibition at 100 μM (i) ([3]; 100 μM) [%]	% Inhibition at 100 μM (i) ([4]; C33A tumor cell line, 100 μM, MTS assay, 72 h) [% i]	% Inhibition at 100 μM (i) ([5]; SK-Mel-28 tumor cell line, 100 μM, MTS assay) [% i]
1000	900	–	–	Myriceric acid A [PM2011]	dose-dependent inhibition; also recorded: dose-dependent decrease	3000	1300	inhibition	2300	–	–	–	–	–	–	–	–
–	–	82000	45000	CCCC[C@@H](NC(=O)[C@@H](Cc1cn(C(=O)OC)c2ccccc12)NC(=O)[C@H](CC(C)(C)C)NC(=O)N1[C@H](C)CCC[C@@H]1C)C(=O)O [BQ788]	–	–	–	–	–	45	0	61800	inhibited the growth	–	–	–	–
–	–	–	–	CC(C)C[C@@H]1NC(=O)[C@@H](C(C)C)NC(=O)[C@@H]2CCCN2C(=O)[C@@H](CC(=O)O)NC(=O)[C@@H](Cc2c[nH]c3ccccc23)NC1=O [BQ-123] (cyclo(L[dW][dD]P[dV]))	–	–	–	–	46000	–	–	–	no growth inhibition	0	30	20	0
